{"source": "paper PMC8198190", "about": "“The PFKFB3 Inhibitor AZ67 Inhibits Angiogenesis Independently of Glycolysis Inhibition” (International Journal of Molecular Sciences, 2021)", "biological_target": "T1, PFKFB3 (6-phosphofructo-2-kinase/fructose-2,6-bisphosphatase-3) (Homo sapiens, UniProt Q16875)", "T1 construct": "recombinant human PFKFB3 produced in E. coli", "T1 sequence (Q16875 whole entry)": "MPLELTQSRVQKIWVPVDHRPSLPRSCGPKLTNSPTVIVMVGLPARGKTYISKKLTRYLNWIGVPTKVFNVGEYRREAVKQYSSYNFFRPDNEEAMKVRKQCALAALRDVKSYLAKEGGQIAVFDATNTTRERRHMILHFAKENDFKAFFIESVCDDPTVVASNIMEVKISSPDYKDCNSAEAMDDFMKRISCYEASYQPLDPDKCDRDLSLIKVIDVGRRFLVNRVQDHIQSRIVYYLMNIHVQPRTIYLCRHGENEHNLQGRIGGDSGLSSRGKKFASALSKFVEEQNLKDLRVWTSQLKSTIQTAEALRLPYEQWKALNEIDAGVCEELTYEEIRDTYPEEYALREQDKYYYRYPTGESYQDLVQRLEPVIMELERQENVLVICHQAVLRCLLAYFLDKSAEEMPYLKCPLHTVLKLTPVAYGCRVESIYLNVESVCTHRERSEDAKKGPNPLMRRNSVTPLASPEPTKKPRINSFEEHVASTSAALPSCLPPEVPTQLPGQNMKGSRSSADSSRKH", "experiment": "isothermal titration calorimetry (MicroCal Peaq-ITC, […] °C, triplicate)", "format": "binding", "data": [{"smiles": "Cc1noc(C)c1Cn1cc(C#N)c2cc(Oc3ccc(NC(=O)[C@@H]4CCCN4)cc3)ccc21", "note": "[AZ67]", "values": [{"measurement": "Kd", "value": 0.168, "unit": "µM"}]}]}
